The record followed here is ChEMBL document CHEMBL3991601, “The target landscape of clinical kinase drugs” (Science, 2017).

Active and inactive are the calls of the source. Cut-off read from the data, not from the text of the source: actives have a measured Kd and inactives only a lower limit. Where only a bound is given, the exact number is not on record here.

Test [1] deals with T1, Mitogen-activated protein kinase kinase kinase 2 (Homo sapiens, UniProt Q9Y2U5).
T1 sequence (Q9Y2U5 whole entry): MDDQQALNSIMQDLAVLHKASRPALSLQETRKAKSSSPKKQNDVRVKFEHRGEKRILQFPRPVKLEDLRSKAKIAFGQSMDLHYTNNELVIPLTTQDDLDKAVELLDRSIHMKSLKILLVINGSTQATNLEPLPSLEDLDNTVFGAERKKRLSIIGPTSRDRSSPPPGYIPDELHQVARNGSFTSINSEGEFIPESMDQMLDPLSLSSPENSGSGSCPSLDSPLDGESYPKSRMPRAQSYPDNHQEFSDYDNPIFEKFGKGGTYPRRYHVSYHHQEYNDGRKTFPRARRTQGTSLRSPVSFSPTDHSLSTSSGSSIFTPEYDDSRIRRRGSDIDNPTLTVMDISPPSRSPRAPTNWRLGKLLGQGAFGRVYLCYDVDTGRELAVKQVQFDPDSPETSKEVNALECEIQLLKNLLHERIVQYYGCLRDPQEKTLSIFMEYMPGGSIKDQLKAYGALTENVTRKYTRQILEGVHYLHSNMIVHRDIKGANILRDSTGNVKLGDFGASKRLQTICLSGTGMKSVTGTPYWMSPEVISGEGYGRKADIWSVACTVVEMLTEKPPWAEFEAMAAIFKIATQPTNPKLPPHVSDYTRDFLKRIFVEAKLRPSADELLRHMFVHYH

Test [2] addresses T2, Cyclin-G-associated kinase (Homo sapiens, UniProt O14976).
T2 sequence (O14976 whole entry): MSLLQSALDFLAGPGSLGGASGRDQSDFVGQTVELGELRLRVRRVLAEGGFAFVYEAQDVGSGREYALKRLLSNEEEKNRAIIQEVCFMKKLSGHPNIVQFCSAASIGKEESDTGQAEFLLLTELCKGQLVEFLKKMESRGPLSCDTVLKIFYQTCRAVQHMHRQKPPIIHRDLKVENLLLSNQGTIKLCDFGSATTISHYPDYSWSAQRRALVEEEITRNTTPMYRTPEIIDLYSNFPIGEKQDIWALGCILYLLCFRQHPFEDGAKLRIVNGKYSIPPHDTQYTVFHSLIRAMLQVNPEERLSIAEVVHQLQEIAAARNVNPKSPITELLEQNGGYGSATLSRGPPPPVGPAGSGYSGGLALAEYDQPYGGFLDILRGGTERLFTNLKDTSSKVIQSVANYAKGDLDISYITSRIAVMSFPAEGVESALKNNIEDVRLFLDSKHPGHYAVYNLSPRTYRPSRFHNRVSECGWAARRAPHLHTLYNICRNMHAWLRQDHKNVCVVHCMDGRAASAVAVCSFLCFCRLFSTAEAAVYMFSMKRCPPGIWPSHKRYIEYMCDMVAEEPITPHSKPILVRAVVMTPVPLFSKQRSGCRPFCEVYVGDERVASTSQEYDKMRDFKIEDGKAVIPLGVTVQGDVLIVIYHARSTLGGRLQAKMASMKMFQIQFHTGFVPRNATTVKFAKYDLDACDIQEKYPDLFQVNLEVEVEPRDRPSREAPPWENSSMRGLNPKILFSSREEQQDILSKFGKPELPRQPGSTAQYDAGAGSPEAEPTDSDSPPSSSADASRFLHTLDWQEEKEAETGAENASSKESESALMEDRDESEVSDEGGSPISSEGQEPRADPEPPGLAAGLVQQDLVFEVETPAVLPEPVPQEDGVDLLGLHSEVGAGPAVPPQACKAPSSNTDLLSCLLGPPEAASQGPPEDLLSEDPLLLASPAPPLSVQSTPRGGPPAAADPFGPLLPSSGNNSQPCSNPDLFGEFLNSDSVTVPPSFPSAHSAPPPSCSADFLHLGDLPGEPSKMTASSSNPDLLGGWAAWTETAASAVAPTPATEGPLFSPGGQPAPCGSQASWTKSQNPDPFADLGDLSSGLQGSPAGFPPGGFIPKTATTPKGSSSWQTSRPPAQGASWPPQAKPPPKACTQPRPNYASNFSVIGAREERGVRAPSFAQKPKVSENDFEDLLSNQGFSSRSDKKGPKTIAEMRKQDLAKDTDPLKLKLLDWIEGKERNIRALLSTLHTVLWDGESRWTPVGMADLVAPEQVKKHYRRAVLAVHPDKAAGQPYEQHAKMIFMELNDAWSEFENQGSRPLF

In test [3] the target is T3, Serine/threonine-protein kinase ULK1 (Homo sapiens, UniProt O75385).
T3 sequence (O75385 whole entry): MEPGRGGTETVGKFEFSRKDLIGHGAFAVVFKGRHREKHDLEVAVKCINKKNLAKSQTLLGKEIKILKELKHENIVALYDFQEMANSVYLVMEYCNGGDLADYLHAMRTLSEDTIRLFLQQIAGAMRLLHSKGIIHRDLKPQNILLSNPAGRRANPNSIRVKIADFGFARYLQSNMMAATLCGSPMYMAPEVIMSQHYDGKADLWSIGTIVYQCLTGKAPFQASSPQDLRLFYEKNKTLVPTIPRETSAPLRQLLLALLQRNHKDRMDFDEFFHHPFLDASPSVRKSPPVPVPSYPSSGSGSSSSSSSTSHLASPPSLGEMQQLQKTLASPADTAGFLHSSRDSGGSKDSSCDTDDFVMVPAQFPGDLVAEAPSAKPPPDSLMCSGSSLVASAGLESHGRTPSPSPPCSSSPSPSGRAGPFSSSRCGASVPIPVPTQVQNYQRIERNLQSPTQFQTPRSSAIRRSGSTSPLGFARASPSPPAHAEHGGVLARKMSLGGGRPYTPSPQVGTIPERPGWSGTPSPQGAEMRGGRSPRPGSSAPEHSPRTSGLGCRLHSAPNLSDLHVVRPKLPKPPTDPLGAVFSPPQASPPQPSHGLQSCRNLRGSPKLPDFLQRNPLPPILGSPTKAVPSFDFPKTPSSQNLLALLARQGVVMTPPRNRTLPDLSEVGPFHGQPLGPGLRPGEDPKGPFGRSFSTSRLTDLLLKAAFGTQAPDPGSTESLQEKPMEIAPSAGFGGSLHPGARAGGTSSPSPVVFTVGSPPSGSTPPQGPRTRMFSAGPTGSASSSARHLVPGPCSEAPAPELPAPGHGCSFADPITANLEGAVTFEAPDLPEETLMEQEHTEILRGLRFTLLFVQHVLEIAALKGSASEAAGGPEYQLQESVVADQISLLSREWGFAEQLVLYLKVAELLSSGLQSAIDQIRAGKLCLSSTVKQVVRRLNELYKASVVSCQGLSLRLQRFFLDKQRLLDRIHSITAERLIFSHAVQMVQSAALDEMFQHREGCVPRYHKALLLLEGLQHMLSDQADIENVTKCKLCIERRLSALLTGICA

Another test deals with Aurora kinase B (Homo sapiens, UniProt Q96GD4).
Note: in the data inactive means no Kd found up to 30 µM.

Chain of Aurora kinase B (Q96GD4 whole entry): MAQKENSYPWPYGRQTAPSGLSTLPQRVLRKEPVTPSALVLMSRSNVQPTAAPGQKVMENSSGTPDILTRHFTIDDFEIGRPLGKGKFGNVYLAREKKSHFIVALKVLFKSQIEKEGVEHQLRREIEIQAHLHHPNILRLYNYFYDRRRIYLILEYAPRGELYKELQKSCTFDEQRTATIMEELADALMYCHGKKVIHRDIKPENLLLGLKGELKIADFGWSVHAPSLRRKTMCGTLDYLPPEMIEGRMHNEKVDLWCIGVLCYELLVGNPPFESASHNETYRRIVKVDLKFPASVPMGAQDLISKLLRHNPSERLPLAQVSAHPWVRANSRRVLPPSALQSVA

For `CC(C)Nc1cc(-c2c[nH]c(C(=O)N[C@H](CO)c3cccc(Cl)c3)c2)c(Cl)cn1` [ULIXERTINIB], the Kd (in test [1]; in test [2]; in test [3]; on Aurora kinase B) was > 30 µM (inactive) in each case.
As to `O=c1sn(-c2cccc3ccccc23)c(=O)n1Cc1ccccc1` [TIDEGLUSIB], the Kd (in test [1]; in test [2]; in test [3]; on Aurora kinase B) was > 30 µM (inactive) each time.
Consider `CNC(=O)c1cc(Oc2ccc(NC(=O)Nc3ccc(Cl)c(C(F)(F)F)c3)c(F)c2)ccn1` [REGORAFENIB], for which the Kd (in test [1]; in test [2]; in test [3]; at Aurora kinase B) was > 30 µM (inactive) in each case.
Turning to `Cc1ccc(-n2nc(C(C)(C)C)cc2NC(=O)NCc2cc(F)ccc2Oc2ccc3c(cnn3CCO)c2)cc1` [PEXMETINIB], the Kd (in test [1]; in test [2]; in test [3]; at Aurora kinase B) was > 30 µM (inactive) throughout.
With `CCN1CCN(Cc2ccc(-c3cc4c(N[C@H](C)c5ccccc5)ncnc4[nH]3)cc2)CC1` [AEE-788], the Kd (in test [1]; in test [2]; in test [3]; on Aurora kinase B) was > 30 µM (inactive) each time.
Regarding `Cc1ccc(NC(=O)c2ccc(CN3CC[C@H](N(C)C)C3)c(C(F)(F)F)c2)cc1Nc1nccc(-c2cncnc2)n1` [BAFETINIB], the Kd (in test [1]; in test [2]; in test [3]; at Aurora kinase B) was > 30 µM (inactive) each time.
With `CN(C)C(=O)c1cc2cnc(Nc3ccc(N4CCNCC4)cn3)nc2n1C1CCCC1` [RIBOCICLIB], the Kd in test [1] is > 30 µM (inactive); in test [2], 0.658 µM (active); in test [3] it was > 30 µM (inactive); at Aurora kinase B, > 30 µM (inactive).
In the case of `COCCNCc1ccc(-c2cc3nccc(Oc4ccc(NC(=S)NC(=O)Cc5ccc(F)cc5)cc4F)c3s2)nc1` [GLESATINIB], the Kd (in test [1]; in test [2]; in test [3]; on Aurora kinase B) was > 30 µM (inactive) each time.
Consider `Cn1cc(-c2ccc3nnc(C(F)(F)c4ccc5ncccc5c4)n3n2)cn1` [JNJ-38877605], for which the Kd (in test [1]; in test [2]; in test [3]; at Aurora kinase B) was > 30 µM (inactive) throughout.
Consider `CC[C@H](Nc1ncnc2[nH]cnc12)c1nc2cccc(F)c2c(=O)n1-c1ccccc1` [IDELALISIB], for which the Kd (in test [1]; in test [2]; in test [3]; at Aurora kinase B) was > 30 µM (inactive) each time.
For `CN1CC[C@@H](c2c(O)cc(O)c3c(=O)cc(-c4ccccc4Cl)oc23)[C@@H]1CO`, the Kd (in test [1]; in test [2]; in test [3]; at Aurora kinase B) was > 30 µM (inactive) throughout.
Take `CN1N=C(N)c2cn([C@@H]3O[C@H](COP(=O)(O)O)[C@@H](O)[C@H]3O)c3ncnc1c23` [TRICIRIBINE PHOSPHATE]: the Kd (in test [1]; in test [2]; in test [3]; on Aurora kinase B) was > 30 µM (inactive) in each case.
Turning to `O=C(c1ccc(F)c(F)c1Nc1ccc(I)cc1F)N1CC(O)([C@@H]2CCCCN2)C1` [COBIMETINIB], the Kd (in test [1]; in test [2]; in test [3]; at Aurora kinase B) was > 30 µM (inactive) in each case.
Take `Cc1cc(-c2cc(O)ccc2Cl)cc2nnc(Nc3ccc(OCCN4CCCC4)cc3)nc12`: the Kd in test [1] was > 30 µM (inactive); in test [2] it was 0.002 µM (active); in test [3], > 30 µM (inactive); on Aurora kinase B it was > 30 µM (inactive).
